The values that follow come from patent US20240174714A1, “TREATMENT OF SKIN DISORDERS” (priority 2021, published 2024).

≈ marks a conversion by molar mass, not a printed value. Read-outs that look alike come from different tables or passages of the source. Square brackets hold non-standard residues; d marks the D form. Peptide text beside a SMILES is read from it. * marks the point of attachment. NH((S)CH(Me)CH2NMe2) = C[C@@H](CN(C)C)N*; NH(1-CH2NMe2-cBu) = CN(C)CC1(N*)CCC1; Gly(octyl) = CCCCCCCC[C@H](N)C(=O)O; Oxazole4CO(2-Me) = Cc1nc(C(=O)*)co1; hCha = N[C@@H](CCC1CCCCC1)C(=O)O; X8 = O=C(c1coc(-c2ccccc2)n1)*; X2 = C1CCN(CC2(N*)CCC2)CC1; Aib = CC(C)(N)C(=O)O; βAla = NCCC(=O)O

Data set [1] concerns Staphylococcus aureus ATCC BAA-1556, USA300 MRSA. The data set is described as follows: microbe, parasite or virus in culture. Particulars: ATCC BAA-1556. Type of data set: cell-based. The method, then:
Pre-formulated compound solution was diluted in 100% DMSO to prepare a 1.6 mg/mL working stock solution. […] The concentration range was 0.032 to 32 μg/mL.

Data set [2] relates to Staphylococcus aureus ATCC 43300, MRSA. Type of data set: cell-based. Particulars: ATCC 43300, 18 h. The method, then: The antibacterial activity of inventive compounds was evaluated in duplicate in a further Minimum Inhibitory Concentration (MIC) assay.
Bacteria were cultured in Cation-adjusted Mueller Hinton broth (CAMHB) at 37° C. overnight. A sample of each culture was then diluted 40-fold in fresh broth and incubated at 37° C. for 1.5-3 h. The resultant mid-log phase cultures were diluted (CFU/mL measured by OD600), then added to each well of the compound containing plates, giving a cell density of 5×10^5 CFU/mL and a total volume of 50 μL. All the plates were covered and incubated at 37° C. for 18 h without shaking.
Samples were prepared in DMSO and serially diluted 2 fold 8 times. Each sample concentration was prepared in 384-well plates, non-binding surface plate (NBS; Corning 3640) for the bacterial strain ATCC 43300, MRSA. The final DMSO concentration was at a maximum of 0.5%.
Inhibition of bacterial growth was determined measuring absorbance at 600 nm (OD600), using a Tecan M1000 Pro monochromator plate reader. The percentage of growth inhibition was calculated for each well, using the negative control (media only) and positive control (bacteria without inhibitors) on the same plate as references. […] Vancomycin was used as positive bacterial inhibitor standards.

Data set [3] relates to axenic Leishmania donovani MHOM-ET-67/L82 amastigotes. The data set is described as follows: In vitro antiprotozoal assay, axenic amastigotes. Particulars: axenic amastigotes; read-out: L.don.ax. IC50. The format is cell-based.
Method: (§3) The testing of the inventive compounds against Leishmania donovani (strain MHOM/ET/67/L82) was performed in 96 well plates at concentrations in serial dilutions. Tests were done in triplicate.
The test system of data set [4] is intracellular Leishmania donovani MHOM-ET-67/L82 amastigotes. Nature of the data set: In vitro antiprotozoal assay, intracellular amastigotes. Type of data set: cell-based. Particulars: intracellular amastigotes; read-out: L.don.InMac IC50.
Method: as §3
In data set [5] the test system is rat myoblast cells (L6). The data set is described as follows: Cytotoxicity assay (Alamar Blue) on L6-cells. Type of data set: cell-based. The method, then:
(§1) Tests were done in triplicate.
(§2) The plates were incubated for additional 2 h.
For orientation: Alamar Blue is a resazurin reagent that responds to reducing activity.

Data set [6] can be described thus: Cytotoxicity assay (Alamar Blue) on L6-cells. Particulars: rat. Type of data set: cell-based, rat. As for the experimental part: as §1, §2

Consider `Cc1nc(C(=O)N2CCCC2C(=O)N[C@@H](CCC2CCCCC2)C(=O)N[C@@H](CC(C)C)C(=O)NC(C)(C)C(=O)N[C@@H](CC(C)C)C(=O)N[C@@H](CC(C)C)C(=O)NC(C)(C)C(=O)NC(C)(C)C(=O)NCCC(=O)NCCN)co1` (stereo in doubt) [Compound 7192, (2S)-N-(1-{[(1S)-1-{[(1S)-1-[(1-{[1-({2-[(2-aminoethyl)carbamoyl]ethyl}carbamoyl)-1-methylethyl]carbamoyl}-1-methylethyl)carbamoyl]-3-methylbutyl]carbamoyl}-3-methylbutyl]carbamoyl}-1-methylethyl)-2-[(2S)-4-cyclohexyl-2-{[(2S)-1-(2-methyl-1,3-oxazole-4-carbonyl)pyrrolidin-2-yl]formamido}butanamido]-4-methylpentanamide], for which the “MIC” value was found to be 16 µg/mL (≈ 14.6 µM) in data set [1] and 8 µg/mL (≈ 7.28 µM) in data set [2].

A word on the IC50: it is the point on the concentration scale where inhibition reaches its midpoint. With `CCCCCCCC[C@H](NC(=O)[C@@H]1CCCN1C(=O)c1coc(-c2ccccc2)n1)C(=O)N[C@@H](CC(C)C)C(=O)NC(C)(C)C(=O)N[C@@H](CC(C)C)C(=O)N[C@@H](CC(C)C)C(=O)NC(C)(C)C(=O)NC(C)(C)C(=O)NCCC(=O)N[C@@H](C)CN(C)C` [Compound 5906, (2S)-N-[(1S)-1-[(1-{[(1S)-1-{[(1S)-1-{[1-({1-[(2-{[(2S)-1-(dimethylamino)propan-2-yl]carbamoyl}ethyl)carbamoyl]-1-methylethyl}carbamoyl)-1-methylethyl]carbamoyl}-3-methylbutyl]carbamoyl}-3-methylbutyl]carbamoyl}-1-methylethyl)carbamoyl]-3-methylbutyl]-2-{[(2S)-1-(2-phenyl-1,3-oxazole-4-carbonyl)pyrrolidin-2-yl]formamido}decanamide] (X8-P[Gly(octyl)]L[Aib]LL[Aib][Aib][βAla]-{NH((S)CH(Me)CH2NMe2)}), the IC50 in data set [3] amounted to 0.0037 µM; in data set [4], 0.0141 µM; in data set [5] it was 445 nM.

Consider `Cc1nc(C(=O)N2CCC[C@H]2C(=O)N[C@@H](CCC2CCCCC2)C(=O)N[C@@H](CC(C)C)C(=O)NC(C)(C)C(=O)N[C@@H](CC(C)C)C(=O)N[C@@H](CC(C)C)C(=O)NC(C)(C)C(=O)NC(C)(C)C(=O)NCCC(=O)NC2(CN(C)C)CCC2)co1` [Compound 6025, (2S)-2-[(2S)-4-cyclohexyl-2-{[(2S)-1-(2-methyl-1,3-oxazole-4-carbonyl)pyrrolidin-2-yl]formamido}butanamido]-N-(1-{[(1S)-1-{[(1S)-1-({1-[(1-{[2-({1-[(dimethylamino)methyl]cyclobutyl}carbamoyl)ethyl]carbamoyl}-1-methylethyl)carbamoyl]-1-methylethyl}carbamoyl)-3-methylbutyl]carbamoyl}-3-methylbutyl]carbamoyl}-1-methylethyl)-4-methylpentanamide] ({Oxazole4CO(2-Me)}-P[hCha]L[Aib]LL[Aib][Aib][βAla]-{NH(1-CH2NMe2-cBu)}), for which the IC50 in data set [3] came out at 0.0099 µM; in data set [4] it was 0.0411 µM; in data set [5], 1910 nM. Besides, the “MIC” value in data set [1] stood at 4 µg/mL (≈ 3.43 µM).

Take `Cc1nc(C(=O)N2CCC[C@H]2C(=O)N[C@@H](CCC2CCCCC2)C(=O)N[C@@H](CC(C)C)C(=O)NC(C)(C)C(=O)N[C@@H](CC(C)C)C(=O)N[C@@H](CC(C)C)C(=O)NC(C)(C)C(=O)NC(C)(C)C(=O)NCCC(=O)NC2(CN3CCCCC3)CCC2)co1` [Compound 6483, (2S)-2-[(2S)-4-cyclohexyl-2-{[(2S)-1-(2-methyl-1,3-oxazole-4-carbonyl)pyrrolidin-2-yl]formamido}butanamido]-4-methyl-N-(1-methyl-1-{[(1S)-3-methyl-1-{[(1S)-3-methyl-1-({1-methyl-1-[(1-methyl-1-{[2-({1-[(piperidin-1-yl)methyl]cyclobutyl}carbamoyl)ethyl]carbamoyl}ethyl)carbamoyl]ethyl}carbamoyl)butyl]carbamyl}butyl]carbamoyl}ethyl)pentanamide] ({Oxazole4CO(2-Me)}-P[hCha]L[Aib]LL[Aib][Aib][βAla]-X2): the IC50 in data set [3] was 0.0041 µM. The IC50 at 68 h in data set [6] came to 0.486 µM. In addition, the “MIC” value in data set [1] and in data set [2] was 8 µg/mL (≈ 6.62 µM) in each case.

Regarding `Cc1nc(C(=O)N2CCC[C@H]2C(=O)N[C@@H](Cc2c[nH]c3ccccc23)C(=O)N[C@@H](CC(C)C)C(=O)NC(C)(C)C(=O)N[C@@H](CC(C)C)C(=O)N[C@@H](CC(C)C)C(=O)NC(C)(C)C(=O)NC(C)(C)C(=O)NCCC(=O)NC2(CN(C)C)CCC2)co1` [Compound 6779, (2S)-N-(1-{[(1S)-1-{[(1S)-1-({1-[(1-{[2-({1-[(dimethylamino)methyl]cyclobutyl}carbamoyl)ethyl]carbamoyl}-1-methylethyl)carbamoyl]-1-methylethyl}carbamoyl)-3-methylbutyl]carbamoyl}-3-methylbutyl]carbamoyl}-1-methylethyl)-2-[(2S)-3-(1H-indol-3-yl)-2-{[(2S)-1-(2-methyl-1,3-oxazole-4-carbonyl)pyrrolidin-2-yl]formamido}propanamido]-4-methylpentanamide] (HELM PEPTIDE1{[Cc1nc(C(=O)[*:2])co1].P.W.L.[Aib].L.L.[Aib].[Aib].[bAla].[CN(C)CC1(N[*:1])CCC1]}$$$$V2.0), the IC50 in data set [3] worked out at 0.027 µM; in data set [4], 0.203 µM. In data set [6], this molecule came in with an IC50 at 68 h of 6.68 µM. The “MIC” value in data set [2] came to 8 µg/mL (≈ 6.74 µM).

As to `Cc1nc(C(=O)N2CCC[C@H]2C(=O)N[C@@H](CC2CCCCC2)C(=O)N[C@@H](CC(C)C)C(=O)NC(C)(C)C(=O)N[C@@H](CC(C)C)C(=O)N[C@@H](CC(C)C)C(=O)NC(C)(C)C(=O)NC(C)(C)C(=O)NCCC(=O)NC2(CN(C)C)CCC2)co1` [Compound 7059, (2S)-2-[(2S)-3-cyclohexyl-2-{[(2S)-1-(2-methyl-1,3-oxazole-4-carbonyl)pyrrolidin-2-yl]formamido}propanamido]-N-(1-{[(1S)-1-{[(1S)-1-({1-[(1-{[2-({1-[(dimethylamino)methyl]cyclobutyl}carbamoyl)ethyl]carbamoyl}-1-methylethyl)carbamoyl]-1-methylethyl}carbamoyl)-3-methylbutyl]carbamoyl}-3-methylbutyl]carbamoyl}-1-methylethyl)-4-methylpentanamide] (HELM PEPTIDE1{[Cc1nc(C(=O)[*:2])co1].P.[Cha].L.[Aib].L.L.[Aib].[Aib].[bAla].[CN(C)CC1(N[*:1])CCC1]}$$$$V2.0), the IC50 in data set [3] was 0.0013 µM. This molecule yielded an IC50 at 68 h in data set [6] of 6.85 µM. Besides, the “MIC” value in data set [1] was found to be 4 µg/mL (≈ 3.47 µM); in data set [2], 32 µg/mL (≈ 27.7 µM).

In the case of `COc1cc([C@@H]2c3cc4c(cc3[C@H](O)[C@H]3COC(=O)[C@H]23)OCO4)cc(OC)c1OC` [Podophyllotoxin, reference compound], the IC50 worked out at 19.3 nM in data set [5] (Rattus norvegicus, Myoblast, read-out: IC50 Concurrent (nM)) and 50 ± 10 nM in data set [5] (Rattus norvegicus, Myoblast, read-out: IC50 of reference drug).
